Source: publication PMC7717570, “Deciphering the enzymatic target of a new family of antischistosomal agents bearing a quinazoline scaffold using complementary computational tools” (Journal of Enzyme Inhibition and Medicinal Chemistry, 2020)
Where two headings read alike, the source gives them in different places. Each block holds one molecule with its values, some of them ahead of it.

Key:
[1] = Microsomal stability, mouse liver microsomes (S9), Phase-I (CYP450-NADPH); type: in vitro ADME; details: 5 µM
Experimental: (§1) Mouse or human liver microsomes (S9), reduced nicotinamide adenine dinucleotide phosphate (NADPH) generating system solutions and uridine glucuronosyltransferase (UGT) reaction mix (BD Biosciences) were kept at −80 °C. The test compounds and reference compound diclofenac were formulated in DMSO at […]. The assay was carried out based on the BD Biosciences Guidelines for Use (TF000017 Rev1.0) with minor adaptations. The metabolic stability of the compounds was studied through the CYP450 superfamily (Phase-I metabolism) by fortification with NADPH and through UGT enzymes (Phase-II metabolism) by fortification with uridine diphosphate glucuronic acid (UDPGA). For CYP450 and other NADPH dependent enzymes, the compounds were incubated at 5 µM together with 0.5 mg/mL S9 in potassium phosphate buffer in a reaction started by the addition of 1 mM NADP. At defined time points, 20 µL was withdrawn from the reaction mixture and 80 µL cold acetonitrile (ACN) was added to inactivate the enzymes and precipitate the protein. The mixture was vortexed for 30 s and centrifuged at 4 °C for 5 min to collect the supernatant. For UGT enzymes, the compounds were incubated at 5 µM together with 0.5 mg/mL S9 in a reaction started by the addition of 2 mM UDPGA cofactor. The loss of parent compound was determined using liquid chromatography (UPLC) (Waters Aquity^TM) coupled with tandem quadrupole mass spectrometry (MS^2) (Waters Xevo^TM), equipped with an electrospray ionisation (ESI) interface and operated in multiple reaction monitoring (MRM) mode.

[2] = Microsomal stability, mouse liver microsomes (S9), Phase-II (UGT enzymes); type: in vitro ADME; details: 5 µM
Experimental: as §1

[3] = system: S. mansoni-infected mouse model; assay: In vivo antischistosomal efficacy in the S. mansoni-infected mouse model; design: species or system Schistosoma mansoni; details: mice; for Reduction in total worm burden (percentage change from infected control): sacrificed 10 days post-treatment
Experimental: PZQ was obtained from Egyptian International Pharmaceutical Industries Company (EIPICO) and aminobenzotriazole (ABT) from Fluorochem Ltd.
Male Swiss albino mice (CD-1) obtained from SBSC and weighing 18–20 g were housed under environmentally controlled room temperature of 20–22 °C, 12 h light/dark cycle and 50–60% humidity with food and water ad libitum throughout the acclimatisation and experimental periods. All the animal experiments were conducted in accordance with the Guide for Care and Use of Laboratory Animals and were approved by the Institutional Review Board of Theodor Bilharz Research Institute (TBRI).
Mice were infected with S. mansoni cercariae [provided by Schistosome Biology Supply Center (SBSC)] using body immersion[16] by exposure to 80 ± 10 cercariae/mouse. Infected mice were divided into six groups: groups 1 and 2 were treated the vehicle and the CYP450 inhibitor ABT respectively; groups 3 and 4 were dosed for 5 days with NPD-1246 at 20 and 10 mg/kg, respectively, while group 5 was treated with PZQ at 10 mg/kg/day for 5 days. Group 6 was treated with NPD-1246 combined with PZQ, each at 10 mg/kg/day for 5 days starting from week 7 post-infection. To minimise first-pass elimination, ABT was administered at 100 mg/kg/day for 5 days 2 h prior to each compound administration. NPD-1246 and PZQ were freshly suspended in 2% Cremophore-EL (Sigma-Aldrich). All drug administrations were performed orally.
Ten days post-treatment, all mice were sacrificed and perfused, and the number of worms recovered (worm burden) was quantified and sexed. The number of eggs per gram of liver or intestinal tissue was counted. The percentage of egg developmental stages (oogram pattern) was studied[19] in which eggs at different stages of maturity (from I to IV) were identified and counted. Mature eggs and dead eggs (granular, dark, and semi-transparent) were also counted in three fragments of intestine and the mean number of each stage was calculated.
The percentage reduction of worm or egg burden in each treated group was calculated. […] Results are expressed as mean ± SEM. A two-tailed, unpaired Student’s t-test was used to detect the significance of difference between the means of different groups. Results are considered significant if p value is <0.05.

[4] = system: Schistosoma mansoni mature worms; design: method as in PMID 30669086; details: cited from earlier work; for Worm killing (% of total) / Worm killing (female worms) / Worm killing (male worms): day 5, previously reported; for EC50: previously reported
[5] = system: Schistosoma mansoni worm couples; design: method as in PMID 30669086; details: previously reported, cited from earlier work
[6] = oral 20 mg/kg/day for 5 days with ABT

% Parent compound remaining upon incubation ([1]; 0 h): 100% | % Parent compound remaining upon incubation ([1]; 0.25 h): 66% | % Parent compound remaining upon incubation ([1]; 0.5 h): 27% | % Parent compound remaining upon incubation ([1]; 1 h): 8% | % Parent compound remaining upon incubation ([2]; 0 h): 100% | % Parent compound remaining upon incubation ([2]; 0.25 h): 111% | % Parent compound remaining upon incubation ([2]; 0.5 h): 111% | % Parent compound remaining upon incubation ([2]; 1 h): 106%
SMILES: O=c1c2ccccc2n(Cc2ccc(C(F)(F)F)cc2)c(=O)n1Cc1ccccc1 [NPD-1246, 3-Benzyl-1-(4-(trifluoromethyl)benzyl)quinazoline-2,4(1H,3H)-dione]
Percentage of dead eggs compared to the infected untreated group [3, 6]: significant increase | Reduction in intestinal tissue egg load (percentage change from infected control) [3, 6]: 18% | Reduction in total worm burden (percentage change from infected control) ([3]; oral 20 mg/kg/day for 5 days with ABT 100 mg/kg/day): 24% | Worm killing (% of total) ([4]; 5 µM): 0% | Worm killing (% of total) ([4]; 10 µM): 0% | Worm killing (% of total) ([4]; 25 µM): 0% | Worm killing (% of total) ([4]; 50 µM): 53% | Worm killing (% of total) ([4]; 100 µM): 100% | Worm killing (female worms) ([4]; female worms, 5 µM): 0 | Worm killing (female worms) ([4]; female worms, 10 µM): 0 | Worm killing (female worms) ([4]; female worms, 25 µM): 0 | Worm killing (female worms) ([4]; female worms, 50 µM): 57 | Worm killing (female worms) ([4]; female worms, 100 µM): 100 | EC50 ([4]; female worms, read-out: EC50 (worm killing, female worms)): 50 µM | EC50 ([4]; male and female worms, read-out: EC50 (worm killing)): 50 µM | Worm killing (male worms) ([4]; male worms, 5 µM): 0 | Worm killing (male worms) ([4]; male worms, 10 µM): 0 | Worm killing (male worms) ([4]; male worms, 25 µM): 0 | Worm killing (male worms) ([4]; male worms, 50 µM): 50 | Worm killing (male worms) ([4]; male worms, 100 µM): 100 | EC50 ([4]; male worms, read-out: EC50 (worm killing, male worms)): 50 µM | Uncoupling ([5]; 5 µM): No | Uncoupling ([5]; 10 µM): No | Uncoupling ([5]; 25 µM, listed as NPD-1246 (1)): Uncoupling and Yes | Reduction in number of eggs (%) ([5]; 50 µM): 100% | Uncoupling ([5]; 50 µM, listed as NPD-1246 (1)): Uncoupling and Yes | Reduction in number of eggs (%) ([5]; 100 µM): 100% | Uncoupling ([5]; 100 µM, listed as NPD-1246 (1)): Uncoupling and Yes

SMILES: O=C(C1CCCCC1)N1CC(=O)N2CCc3ccccc3C2C1 (stereo not drawn) [PZQ, praziquantel, reference compound]
Reduction in intestinal tissue egg load (percentage change from infected control) ([3]; oral 10 mg/kg/day (each) for 5 days with ABT): 70% | Reduction in total worm burden (percentage change from infected control) ([3]; oral 10 mg/kg/day (each) for 5 days with ABT 100 mg/kg/day): 63% | Reduction in hepatic tissue egg load (percentage change from infected control) ([3]; oral 10 mg/kg/day (each) for 5 days with ABT, + = increase): 38%
